Patent publication US12655124B2, “Heterocyclic compounds as modulators of stimulator of interferon genes (STING)” (RYVU THERAPEUTICS S.A., priority 2019, dated 2026)
Where a name gives a salt, the structure may show the parent alone.

How the values were obtained:
[1] = test system: NF-κB pathway in THP-1 dual cells; assay: THP-1 Dual reporter assay, NF-κB pathway (SEAP); type: cell-based; settings: Homo sapiens, THP1-Dual, 18 h stimulation, absorbance at 630 or 655 nm, read-out: THP1 Dual EC50 (μM) NFkB
Procedure: (§1) THP-1 Dual Reporter Assay
(§2) Compounds of the present invention were tested for their activity using THP-1 dual cells (Invivogen, cat no. thpd-nfis) allowing for simultaneous study of NF-κB pathway and the interferon regulatory factor (IRF) pathway. THP-1 dual cells contain luciferase reporter gene under the control of an ISG54 (interferon-stimulated gene) minimal promoter in conjunction with five interferon-stimulated response elements and a secreted embryonic alkaline phosphatase reporter gene under the control an IFN (interferon)-β minimal promoter fused to five copies of the NF-κB consensus transcriptional response element with three copies of the c-Rel binding site. Following 18 h of stimulation with STING agonist, medium was collected and transferred onto fresh cell culture plate. To verify activity of the IRF pathway, luminescence activity was measured with standard laboratory plate reader immediately after addition 10 μl of the medium to 40 or 50 μl of luminescence reagent (Invivogen, cat. No. rep-qlc2). To verify activity of NF-κB pathway, 10 or 20 μl of the medium was mixed with 80 μl of a detection medium (Invivogen, cat. No. rep-qb2) and incubated for 1 or 2 hours at 37° C. in a humidified atmosphere containing 5% CO2. Next, absorbance at 630 or 655 nm was recorded using standard laboratory plate reader.

[2] = test system: interferon regulatory factor (IRF) pathway in THP-1 dual cells; assay: THP-1 Dual reporter assay, IRF pathway (luciferase); type: cell-based; settings: Homo sapiens, THP1-Dual, 18 h stimulation, luminescence
Procedure: as §1, §2

human STING = human STING (Homo sapiens, UniProt Q86WV6); assay: Fluorescence Thermal Shift assay (hSTING FTS binding assay); settings: ΔTm, STING 0.1 mg/mL, SyproOrange, 25 to 99° C.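 Note: STING preincubated with compound for 20 min in HEPES NaCl buffer pH 7.5.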
Procedure: Fluorescence Thermal Shift Assay Compounds of the present invention were tested for binding to human STING in Fluorescence Thermal Shift assay. […] Final STING concentration was 0.1 mg/mL. Thermal unfolding was performed in Real-Time PCR QuantStudio 6 Flex System (Applied Biosystems), from 25 to 99° C., with continuous ramp mode and ramp rate 0.033° C./s. The data were analyzed using Protein Thermal Shift Software (ThermoFisher).

Chain of human STING (Q86WV6 whole entry H232R): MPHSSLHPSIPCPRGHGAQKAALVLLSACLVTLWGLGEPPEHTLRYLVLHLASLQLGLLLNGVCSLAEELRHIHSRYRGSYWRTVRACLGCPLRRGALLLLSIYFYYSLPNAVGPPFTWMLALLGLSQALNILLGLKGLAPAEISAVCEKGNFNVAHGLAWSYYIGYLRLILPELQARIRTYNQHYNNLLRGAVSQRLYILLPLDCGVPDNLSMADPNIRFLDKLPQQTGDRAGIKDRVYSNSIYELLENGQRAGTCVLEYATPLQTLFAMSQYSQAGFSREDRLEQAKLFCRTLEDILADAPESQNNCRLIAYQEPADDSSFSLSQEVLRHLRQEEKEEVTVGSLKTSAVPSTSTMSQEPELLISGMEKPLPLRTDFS

Structure (SMILES)	EC50 [1] [µM]	EC50 [2] [µM]	hSTING FTS binding assay (ΔT ° C.) (human STING)
Cc1ccc(N2CCC[C@H](N(Cc3ccnc(C)c3)Cc3cn(C)c4cc(N5CC[C@H](N)C(F)(F)C5)ccc4c3=O)C2)cn1 (single isomer, unassigned) [Example 51]	1 to 10	≤ 1	–
Cc1cc(CN(Cc2cn(C)c3ccccc3c2=O)[C@H]2CCCN(c3cncc(CO)c3)C2)ccn1 [Example 44, 3-({[(3S)-1-[5-(hydroxymethyl)pyridin-3-yl]piperidin-3-yl][(2-methylpyridin-4-yl)methyl]amino}methyl)-1-methyl-1,4-dihydroquinolin-4-one]	≥ 10	≥ 10	–
Cc1cc(CN(Cc2cn(C)c3ccccc3c2=O)[C@H]2CCCN(c3ccc(CCO)nc3)C2)ccn1 [Example 43, 3-({[(3S)-1-[6-(2-hydroxyethyl)pyridin-3-yl]piperidin-3-yl][(2-methylpyridin-4-yl)methyl]amino}methyl)-1-methyl-1,4-dihydroquinolin-4-one]	1 to 10	1 to 10	–
Cc1ccc(N2CCC[C@H](N(Cc3ccnc(C)c3)Cc3cn(C4CC4)c4cc(-n5cc(CO)nn5)c(F)cc4c3=O)C2)cn1 [Example 61, 1-Cyclopropyl-6-fluoro-7-[4-(hydroxymethyl)-1H-1,2,3-triazol-1-yl]-3-({[(3S)-1-(6-methylpyridin-3-yl)piperidin-3-yl][(2-methylpyridin-4-yl)methyl]amino}methyl)-1,4-dihydroquinolin-4-one]	≤ 1	≤ 1	–
Cc1ccc(N2CCC[C@H](N(Cc3ccnc(C)c3)Cc3cn(C4CC4)c4cc(OCCO)c(F)cc4c3=O)C2)cn1 [Example 47, 1-Cyclopropyl-6-fluoro-7-(2-hydroxyethoxy)-3-({[(3S)-1-(6-methylpyridin-3-yl)piperidin-3-yl][(2-methylpyridin-4-yl)methyl]amino}methyl)-1,4-dihydroquinolin-4-one]	≤ 1	≤ 1	+++ (ΔTm≥20° C.)
Cc1ccc(N2CCC[C@H](N(Cc3ccnc(C)c3)Cc3cn(C4CC4)c4cc(CN)c(F)cc4c3=O)C2)cn1 [Example 80, 7-(aminomethyl)-1-cyclopropyl-6-fluoro-3-({[(3S)-1-(6-methylpyridin-3-yl)piperidin-3-yl][(2-methylpyridin-4-yl)methyl]amino}methyl)-1,4-dihydroquinolin-4-one]	≤ 1	≤ 1	–
Cc1ccc(N2CCC[C@H](N(Cc3ccnc(C)c3)Cc3cn(C4CC4)c4nc(N)c(F)cc4c3=O)C2)cn1 [Example 36, 7-amino-1-cyclopropyl-6-fluoro-3-({[(3S)-1-(6-methylpyridin-3-yl)piperidin-3-yl][(2-methylpyridin-4-yl)methyl]amino}methyl)-1,4-dihydro-1,8-naphthyridin-4-one]	≤ 1	≤ 1	–
Cc1ccc(N2CCC[C@H](N(Cc3ccnc(C)c3)Cc3cn(CCN)c4ccccc4c3=O)C2)cn1 [Example 18, 1-(2-Aminoethyl)-3-({[(3S)-1-(6-methylpyridin-3-yl)piperidin-3-yl][(2-methylpyridin-4-yl)methyl]amino}methyl)-1,4-dihydroquinolin-4-one]	1 to 10	1 to 10	+ (ΔTm≤10° C.)
Cc1ccc(N2CCC[C@H](N(Cc3ccnc(C)c3)Cc3cn(C)c4c(OCCO)cccc4c3=O)C2)cn1 [Example 63, 8-(2-hydroxyethoxy)-1-methyl-3-({[(3S)-1-(6-methylpyridin-3-yl)piperidin-3-yl][(2-methylpyridin-4-yl)methyl]amino}methyl)-1,4-dihydroquinolin-4-one]	≤ 1	≤ 1	–
Cc1cc(CN(Cc2cn(C(C)C)c3cc(F)c(F)cc3c2=O)[C@H]2CCCN(c3ccc(N)nc3)C2)ccn1.Cl [Example 24, 3-({[(3S)-1-(6-aminopyridin-3-yl)piperidin-3-yl][(2-methylpyridin-4-yl)methyl]amino}methyl)-6,7-difluoro-1-(propan-2-yl)-1,4-dihydroquinolin-4-one Hydrochloride]	≤ 1	≤ 1	+++ (ΔTm≥20° C.)
Cc1cc(CN(Cc2cn(C)c3cc(N4CCC(C(=O)O)CC4)ccc3c2=O)[C@H]2CCCN(c3cccnc3)C2)ccn1 [Example 46, 1-[1-methyl-3-({[(2-methylpyridin-4-yl)methyl][(3S)-1-(pyridin-3-yl)piperidin-3-yl]amino}methyl)-4-oxo-1,4-dihydroquinolin-7-yl]piperidine-4-carboxylic Acid]	≥ 10	≥ 10	++ (10<ΔTm<20° C.)
COc1cc(CN(Cc2cn(C3CC3)c3cc(N4CC[C@@H](O)C4)c(F)cc3c2=O)[C@H]2CCCN(c3cccnc3)C2)ccn1 [Example 65, 1-cyclopropyl-6-fluoro-7-[(3R)-3-hydroxypyrrolidin-1-yl]-3-({[(2-methoxypyridin-4-yl)methyl][(3S)-1-(pyridin-3-yl)piperidin-3-yl]amino}methyl)-1,4-dihydroquinolin-4-one Hydrochloride]	≤ 1	≤ 1	–
Cc1cc(CN(Cc2cn(C3CC3)c3cc(OCCO)c(F)cc3c2=O)[C@H]2CCCN(c3cccnc3)C2)ccn1 [Example 84, 1-cyclopropyl-6-fluoro-7-(2-hydroxyethoxy)-3-({[(2-methylpyridin-4-yl)methyl][(3S)-1-(pyridin-3-yl)piperidin-3-yl]amino}methyl)-1,4-dihydroquinolin-4-one Hydrochloride]	≤ 1	≤ 1	–
Cc1ccc(N2CCC[C@H](N(Cc3ccnc(C)c3)Cc3cn(C4CC4)c4cc(-n5cc(C(N)=O)nn5)c(F)cc4c3=O)C2)cn1 [Example 60, 1-[1-Cyclopropyl-6-fluoro-3-({[(3S)-1-(6-methylpyridin-3-yl)piperidin-3-yl][(2-methylpyridin-4-yl)methyl]amino}methyl)-4-oxo-1,4-dihydroquinolin-7-yl]-1H-1,2,3-triazole-4-carboxamide]	≤ 1	≤ 1	–
Cc1cc(CN(Cc2cn(C3CC3)c3cc(OCCO)c(F)cc3c2=O)[C@H]2CCCN(c3cnccn3)C2)ccn1.Cl [Example 85, 1-cyclopropyl-6-fluoro-7-(2-hydroxyethoxy)-3-({[(2-methylpyridin-4-yl)methyl][(3S)-1-(pyrazin-2-yl)piperidin-3-yl]amino}methyl)-1,4-dihydroquinolin-4-one Hydrochloride]	≤ 1	≤ 1	++ (10<ΔTm<20° C.)
Cc1ccc(N2CCC[C@H](N(Cc3ccnc(C)c3)Cc3cn(C4CC4)c4cc(N5CC[C@@H](O)C5)ccc4c3=O)C2)cn1 [Example 45, 1-cyclopropyl-7-[(3R)-3-hydroxypyrrolidin-1-yl]-3-({[(3S)-1-(6-methylpyridin-3-yl)piperidin-3-yl][(2-methylpyridin-4-yl)methyl]amino}methyl)-1,4-dihydroquinolin-4-one]	≤ 1	≤ 1	+++ (ΔTm≥20° C.)
Cc1ccc(N2CCC[C@H](N(Cc3ccnc(C)c3)Cc3cn(C4CC4)c4cc(NC(=O)CN)c(F)cc4c3=O)C2)cn1 [Example 25, 2-amino-N-[1-cyclopropyl-6-fluoro-3-({[(3S)-1-(6-methylpyridin-3-yl)piperidin-3-yl][(2-methylpyridin-4-yl)methyl]amino}methyl)-4-oxo-1,4-dihydroquinolin-7-yl]acetamide]	≤ 1	≤ 1	+++ (ΔTm≥20° C.)
Cc1cc(CN(Cc2cn(C3CC3)c3cc(OCCO)c(F)cc3c2=O)[C@H]2CCCN(c3ccc(Cl)nc3)C2)ccn1 [Example 97, 3-({[(3S)-1-(6-chloropyridin-3-yl)piperidin-3-yl][(2-methylpyridin-4-yl)methyl]amino}methyl)-1-cyclopropyl-6-fluoro-7-(2-hydroxyethoxy)-1,4-dihydroquinolin-4-one Hydrochloride]	≤ 1	≤ 1	–
